Experimental data published in ChEMBL document CHEMBL2176906, “Diterpenoids isolated from Sideritis species protect astrocytes against oxidative stress via Nrf2” (J Nat Prod, 2012).
The source made the active and inactive calls. The calls are words filed in the database; no cut-off is given here.

System: U373 MG
Test: Induction of CAT activity in human U373MG cells assessed per mg protein preincubated at 5 uM for 24 hrs before H2O2 challenge by fluorimetric method (reference value: 18.9 +/- 0.4 UI/mg protein)
Assay type: functional, U-373MG ATCC
Settings: not given

Question: Which Activity does the source give for `CC1(C)CCC[C@]2(C)[C@@H]1C[C@H](O)[C@@]13C=C[C@@](CO)(C1)[C@H](O)C[C@@H]23` [CONCHITRIOL] here?
Answer: 18.8 IU

System: U-373MG ATCC
Test: Antioxidant activity in human U373MG cells assessed as reduction in H2O2-induced morphological changes preincubated at 10 uM for 24 hrs before H2O2 challenge by phase-contrast microscopy
Assay type: functional, cell-based
Settings: not given

Question: For `CC1(C)CCC[C@]2(C)[C@@H]1C[C@H](O)[C@@]13C=C[C@@](CO)(C1)[C@H](O)C[C@@H]23` [CONCHITRIOL], which Activity is on record?
Answer: Active

System: U373 MG
Test: Inhibition of H2O2-induced oxidative stress in human U373MG cells assessed as GSH level per mg protein at 10 uM by fluorimetric method (reference value: 17.1 +/- 1.7 nmol/mg protein)
Assay type: functional, U-373MG ATCC
Settings: not given

Question: For `CC1(C)CCC[C@]2(C)[C@@H]1C[C@H](O)[C@@]13C=C[C@@](CO)(C1)[C@H](O)C[C@@H]23` [CONCHITRIOL], which Activity is on record?
Answer: 19.8 nmol

System: not listed separately
Test: Cytotoxicity against human U373MG cells assessed as LDH release at 1 to 10 uM after 24 hrs by LDH assay
Assay type: cell-based
Settings: u-373mg atcc

Question: For `CC1(C)CCC[C@]2(C)[C@@H]1C[C@H](O)[C@@]13C=C[C@@](CO)(C1)[C@H](O)C[C@@H]23` [CONCHITRIOL], which Activity is on record?
Answer: < 10%

Target: T1, Nuclear factor erythroid 2-related factor 2 (Homo sapiens) (UniProt Q16236)
T1 sequence (whole entry): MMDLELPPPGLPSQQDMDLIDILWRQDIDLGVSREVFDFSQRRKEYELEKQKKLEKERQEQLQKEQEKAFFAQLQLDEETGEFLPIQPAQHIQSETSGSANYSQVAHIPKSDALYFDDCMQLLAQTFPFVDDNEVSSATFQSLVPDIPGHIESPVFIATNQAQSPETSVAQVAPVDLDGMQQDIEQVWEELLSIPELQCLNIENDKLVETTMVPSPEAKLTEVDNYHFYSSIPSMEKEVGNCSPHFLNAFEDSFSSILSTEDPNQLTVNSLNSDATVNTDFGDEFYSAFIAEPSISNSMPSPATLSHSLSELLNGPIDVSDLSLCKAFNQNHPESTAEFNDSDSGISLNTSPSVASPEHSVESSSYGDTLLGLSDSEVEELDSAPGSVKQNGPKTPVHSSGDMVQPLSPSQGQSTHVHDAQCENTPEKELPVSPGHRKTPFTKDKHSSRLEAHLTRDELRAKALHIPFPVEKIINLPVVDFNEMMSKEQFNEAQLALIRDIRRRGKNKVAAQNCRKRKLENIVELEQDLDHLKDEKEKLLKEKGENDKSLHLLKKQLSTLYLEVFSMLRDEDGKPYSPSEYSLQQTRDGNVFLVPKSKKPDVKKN
Test: Induction of Nrf2-mediated GPx protein expression in H2O2-stimulated human U373MG cells preincubated at 10 uM for 24 hrs before H2O2 challenge by Western blot method
Assay type: cell-based
Settings: U-373MG ATCC

Question: Which Activity does the source give for `CC1(C)CCC[C@]2(C)[C@@H]1C[C@H](O)[C@@]13C=C[C@@](CO)(C1)[C@H](O)C[C@@H]23` [CONCHITRIOL] here?
Answer: inactive

System: U373 MG
Test: Induction of HO-1 activity in human U373MG cells assessed as bilirubin production per mg protein preincubated at 10 uM for 24 hrs before H2O2 challenge by fluorimetric method (reference value: 19.6 +/-3.5 pmol/hr/mg protein)
Assay type: functional, U-373MG ATCC
Settings: not given

Question: Which Activity does the source give for `CC1(C)CCC[C@]2(C)[C@@H]1C[C@H](O)[C@@]13C=C[C@@](CO)(C1)[C@H](O)C[C@@H]23` [CONCHITRIOL] here?
Answer: 17.8 pmol/h

System: U373 MG
Test: Induction of selenium-dependent GPx activity in human U373MG cells assessed as […] per mg protein preincubated at 10 uM for 24 hrs before H2O2 challenge by fluorimetric method (reference value: 14.7 +/- 2.9 nmol/min/mg protein)
Assay type: functional, U-373MG ATCC
Settings: not given

Question: With `CC1(C)CCC[C@]2(C)[C@@H]1C[C@H](O)[C@@]13C=C[C@@](CO)(C1)[C@H](O)C[C@@H]23` [CONCHITRIOL] as the molecule, how does the Activity read?
Answer: 19.4 nmol/min

System: U373 MG
Test: Induction of total GPx activity in human U373MG cells assessed as […] per mg protein preincubated at 5 uM for 24 hrs before H2O2 challenge by fluorimetric method (reference value: 58.5 +/- 5.1 nmol/min/mg protein)
Assay type: functional, U-373MG ATCC
Settings: not given

Question: Which Activity does the source give for `CC1(C)CCC[C@]2(C)[C@@H]1C[C@H](O)[C@@]13C=C[C@@](CO)(C1)[C@H](O)C[C@@H]23` [CONCHITRIOL] here?
Answer: 59.5 nmol/min

System: U373 MG
Test: Inhibition of H2O2-induced oxidative stress in human U373MG cells assessed as GSH/GSSG ratio at 5 uM (reference value: 1.8 +/- 0.1 )
Assay type: functional, U-373MG ATCC
Settings: not given

Question: For `CC1(C)CCC[C@]2(C)[C@@H]1C[C@H](O)[C@@]13C=C[C@@](CO)(C1)[C@H](O)C[C@@H]23` [CONCHITRIOL], which Ratio is on record?
Answer: 2

System: U373 MG
Test: Inhibition of H2O2-induced oxidative stress in human U373MG cells assessed as GSSG level per mg protein at 5 uM by fluorimetric method (reference value: 9.2 +/- 0.9 nmol/mg protein)
Assay type: functional, U-373MG ATCC
Settings: not given

Question: For `CC1(C)CCC[C@]2(C)[C@@H]1C[C@H](O)[C@@]13C=C[C@@](CO)(C1)[C@H](O)C[C@@H]23` [CONCHITRIOL], which Activity is on record?
Answer: 8.9 nmol

Target: T1, Nuclear factor erythroid 2-related factor 2 (Homo sapiens)
Test: Induction of Nrf2-mediated SOD protein expression in H2O2-stimulated human U373MG cells preincubated at 5 uM for 24 hrs before H2O2 challenge by Western blot method
Assay type: cell-based
Settings: U-373MG ATCC

Question: Which Activity does the source give for `CC1(C)CCC[C@]2(C)[C@@H]1C[C@H](O)[C@@]13C=C[C@@](CO)(C1)[C@H](O)C[C@@H]23` [CONCHITRIOL] here?
Answer: inactive

System: U373 MG
Test: Inhibition of H2O2-induced lipid peroxidation in human U373MG cells assessed as reduction in MDA levels per mg protein at 5 uM by HPLC analysis (reference value: 0.95 +/- 0.03 nmol/mg protein)
Assay type: functional, U-373MG ATCC
Settings: not given

Question: Which Activity does the source give for `CC1(C)CCC[C@]2(C)[C@@H]1C[C@H](O)[C@@]13C=C[C@@](CO)(C1)[C@H](O)C[C@@H]23` [CONCHITRIOL] here?
Answer: 0.91 nmol

System: U373 MG
Test: Inhibition of AAPH-induced oxidative stress in human U373MG cells assessed as peroxy radical scavenging activity at 5 uM by ORAC assay
Assay type: functional, cell-based
Settings: U-373MG ATCC

Question: With `CC1(C)CCC[C@]2(C)[C@@H]1C[C@H](O)[C@@]13C=C[C@@](CO)(C1)[C@H](O)C[C@@H]23` [CONCHITRIOL] as the molecule, how does the Activity read?
Answer: inactive

System: U373 MG
Test: Induction of ROS production in human U373MG cells at 10 uM after 24 hrs by DCFH-DA assay
Assay type: functional, cell-based
Settings: U-373MG ATCC

Question: For `CC1(C)CCC[C@]2(C)[C@@H]1C[C@H](O)[C@@]13C=C[C@@](CO)(C1)[C@H](O)C[C@@H]23` [CONCHITRIOL], which Activity is on record?
Answer: inactive

Target: T1, Nuclear factor erythroid 2-related factor 2 (Homo sapiens)
Test: Induction of Nrf2-mediated CAT protein expression in H2O2-stimulated human U373MG cells preincubated at 5 uM for 24 hrs before H2O2 challenge by Western blot method
Assay type: cell-based
Settings: U-373MG ATCC

Question: For `CC1(C)CCC[C@]2(C)[C@@H]1C[C@H](O)[C@@]13C=C[C@@](CO)(C1)[C@H](O)C[C@@H]23` [CONCHITRIOL], which Activity is on record?
Answer: inactive

System: U373 MG
Test: Inhibition of H2O2-induced oxidative stress in human U373MG cells assessed as GSH/GSSG ratio at 10 uM (reference value: 1.8 +/- 0.1 )
Assay type: functional, U-373MG ATCC
Settings: not given

Question: For `CC1(C)CCC[C@]2(C)[C@@H]1C[C@H](O)[C@@]13C=C[C@@](CO)(C1)[C@H](O)C[C@@H]23` [CONCHITRIOL], which Ratio is on record?
Answer: 2.3

System: U373 MG
Test: Induction of selenium-dependent GPx activity in human U373MG cells assessed as […] per mg protein preincubated at 5 uM for 24 hrs before H2O2 challenge by fluorimetric method (reference value: 14.7 +/- 2.9 nmol/min/mg protein)
Assay type: functional, U-373MG ATCC
Settings: not given

Question: For `CC1(C)CCC[C@]2(C)[C@@H]1C[C@H](O)[C@@]13C=C[C@@](CO)(C1)[C@H](O)C[C@@H]23` [CONCHITRIOL], which Activity is on record?
Answer: 17.6 nmol/min

System: U373 MG
Test: Inhibition of H2O2-induced oxidative stress in human U373MG cells assessed as GSH level per mg protein at 5 uM by fluorimetric method (reference value: 17.1 +/- 1.7 nmol/mg protein)
Assay type: functional, U-373MG ATCC
Settings: not given

Question: With `CC1(C)CCC[C@]2(C)[C@@H]1C[C@H](O)[C@@]13C=C[C@@](CO)(C1)[C@H](O)C[C@@H]23` [CONCHITRIOL] as the molecule, how does the Activity read?
Answer: 18 nmol

System: U373 MG
Test: Induction of Glutathione reductase activity in human U373MG cells assessed as […] per mg protein preincubated at 5 uM for 24 hrs before H2O2 challenge by fluorimetric method (reference value: 9.3 +/- 2.2 nmol/min/mg protein)
Assay type: functional, U-373MG ATCC
Settings: not given

Question: With `CC1(C)CCC[C@]2(C)[C@@H]1C[C@H](O)[C@@]13C=C[C@@](CO)(C1)[C@H](O)C[C@@H]23` [CONCHITRIOL] as the molecule, how does the Activity read?
Answer: 8.2 nmol/min

System: U373 MG
Test: Induction of CAT activity in human U373MG cells assessed per mg protein preincubated at 10 uM for 24 hrs before H2O2 challenge by fluorimetric method (reference value: 18.9 +/- 0.4 UI/mg protein)
Assay type: functional, U-373MG ATCC
Settings: not given

Question: With `CC1(C)CCC[C@]2(C)[C@@H]1C[C@H](O)[C@@]13C=C[C@@](CO)(C1)[C@H](O)C[C@@H]23` [CONCHITRIOL] as the molecule, how does the Activity read?
Answer: 17.4 IU

System: U373 MG
Test: Induction of ROS production in human U373MG cells at 5 uM after 24 hrs by DCFH-DA assay
Assay type: functional, cell-based
Settings: U-373MG ATCC

Question: With `CC1(C)CCC[C@]2(C)[C@@H]1C[C@H](O)[C@@]13C=C[C@@](CO)(C1)[C@H](O)C[C@@H]23` [CONCHITRIOL] as the molecule, how does the Activity read?
Answer: inactive

System: U373 MG
Test: Induction of HO-1 activity in human U373MG cells assessed as bilirubin production per mg protein preincubated at 5 uM for 24 hrs before H2O2 challenge by fluorimetric method (reference value: 19.6 +/-3.5 pmol/hr/mg protein)
Assay type: functional, U-373MG ATCC
Settings: not given

Question: With `CC1(C)CCC[C@]2(C)[C@@H]1C[C@H](O)[C@@]13C=C[C@@](CO)(C1)[C@H](O)C[C@@H]23` [CONCHITRIOL] as the molecule, how does the Activity read?
Answer: 15.9 pmol/h

System: U373 MG
Test: Induction of total GPx activity in human U373MG cells assessed as […] per mg protein preincubated at 10 uM for 24 hrs before H2O2 challenge by fluorimetric method (reference value: 58.5 +/- 5.1 nmol/min/mg protein)
Assay type: functional, U-373MG ATCC
Settings: not given

Question: Which Activity does the source give for `CC1(C)CCC[C@]2(C)[C@@H]1C[C@H](O)[C@@]13C=C[C@@](CO)(C1)[C@H](O)C[C@@H]23` [CONCHITRIOL] here?
Answer: 52.6 nmol/min

System: U373 MG
Test: Inhibition of H2O2-induced lipid peroxidation in human U373MG cells assessed as reduction in MDA levels per mg protein at 10 uM by HPLC analysis (reference value: 0.95 +/- 0.03 nmol/mg protein)
Assay type: functional, U-373MG ATCC
Settings: not given

Question: With `CC1(C)CCC[C@]2(C)[C@@H]1C[C@H](O)[C@@]13C=C[C@@](CO)(C1)[C@H](O)C[C@@H]23` [CONCHITRIOL] as the molecule, how does the Activity read?
Answer: 0.87 nmol

System: U373 MG
Test: Induction of Nrf2 nuclear protein expression in H2O2-stimulated human U373MG cells preincubated at 5 uM for 24 hrs before H2O2 challenge by Western blot method
Assay type: functional, cell-based
Settings: U-373MG ATCC

Question: With `CC1(C)CCC[C@]2(C)[C@@H]1C[C@H](O)[C@@]13C=C[C@@](CO)(C1)[C@H](O)C[C@@H]23` [CONCHITRIOL] as the molecule, how does the Activity read?
Answer: inactive

Target: T1, Nuclear factor erythroid 2-related factor 2 (Homo sapiens)
Test: Induction of Nrf2-mediated GPx protein expression in H2O2-stimulated human U373MG cells preincubated at 5 uM for 24 hrs before H2O2 challenge by Western blot method
Assay type: cell-based
Settings: U-373MG ATCC

Question: With `CC1(C)CCC[C@]2(C)[C@@H]1C[C@H](O)[C@@]13C=C[C@@](CO)(C1)[C@H](O)C[C@@H]23` [CONCHITRIOL] as the molecule, how does the Activity read?
Answer: inactive
